Data reported in ChEMBL document CHEMBL3244214, “Molar volume relationships and the specific inhibition of a synaptosomal enzyme by psychoactive cannabinoids” (J Med Chem, 1978).

Columns and labels:
[1] = Molar volume, Vm of the compound at zero temperature; assay type: physicochemical
[2] = Antihemolytic potency against hypotonic lysis-induced erythrocytes (unknown origin) assessed as stabilization; assay type: functional, Erythrocyte
[3] = Inhibition of mouse brain synaptosomal Lysophosphatidylcholine acyltransferase using substrate [32P]lysophosphatidylcholine and oleoyl-CoA

Row | SMILES | Vm [1] | pAH50 [2] | pKi [3]
1 | CCCCCc1cc(O)c2c(c1)OC(C)(C)[C@@H]1CC=C(C)C[C@@H]21 [DELTA-8-TETRAHYDROCANNABINOL] | 2.687 ×10⁻⁴ m3/mol | 3.85 | 4.24
2 | Oc1ccc(Cl)cc1 [PARACHLOROPHENOL] | 8.975 ×10⁻⁵ m3/mol | 3.13 | 2.74
3 | CC1=C(/C=C/C(C)=C/C=C/C(C)=C/CO)C(C)(C)CCC1 [RETINOL] | 2.865 ×10⁻⁴ m3/mol | 5.49 | 3.82
4 | Oc1ccccc1Cl [2-CHLOROPHENOL] | 8.975 ×10⁻⁵ m3/mol | 2.94 | 2.48
5 | CCCCCCCCO [OCTANOL] | 1.295 ×10⁻⁴ m3/mol | 3.63 | 2.77
6 | CCCCCc1cc(O)c2c(c1)OC(C)(C)[C@@H]1CCC(C)=C[C@@H]21 [DRONABINOL] | 2.687 ×10⁻⁴ m3/mol | 4.1 | 6.52
7 | CC(C)[C@]12CC(=O)[C@H](C)[C@H]1C2 | 1.132 ×10⁻⁴ m3/mol | 3 | 3.15
8 | CCCCCc1cc(O)c(C/C=C(\C)CCC=C(C)C)c(O)c1 [CANNABIGEROL] | 2.861 ×10⁻⁴ m3/mol | 4.66 | 3.59
9 | CCCCCCc1cc(O)c2c(c1)OC(C)(C)C1=C2CC(C)CC1 (centres undefined) | 2.828 ×10⁻⁴ m3/mol | 4.03 | 3.6
10 | CCCCCc1cc(O)c2c(c1)OC(C)(C)c1ccc(C)cc1-2 [CANNABINOL] | 2.601 ×10⁻⁴ m3/mol | 4.4 | 3.26
11 | CN(C)CCCN1c2ccccc2Sc2ccc(Cl)cc21 [CHLORPROMAZINE] | 2.406 ×10⁻⁴ m3/mol | 5.09 | 3.1
12 | CCCCCCCCCCO [DECANOL] | 1.576 ×10⁻⁴ m3/mol | 5 | 3.77
13 | CCCCCc1cc(O)c2c(c1)OC(C)(C)[C@@H]1CCC(CO)=C[C@@H]21 | 2.746 ×10⁻⁴ m3/mol | 3.72 | 4.07
14 | CCCCCCCCCCCCO [DODECANOL] | 1.858 ×10⁻⁴ m3/mol | 5.27 | 3.39
15 | CCCCCCCCCO [NONANOL] |  | 4.39 | 3.24
